Test results reported in the supplement of paper PMC11208160.

assay: recombinant barcode read abundance after kanamycin selection (control-corrected) (log10(CPM+1)); higher = more efficient recombination; sequences stand for … in AGTGCAGAGAAAATCGGCCAGTTTTCTCTGCCTGCAGTCCGCATGCCGT…ATTTATGCAGCGGACTGCCTTTCTCCCAAAGTGATAAACCGGACAGTATCATGGACCGGTTTTCCCGGTAATCCGTATTTGCAAGGTTGGTTTCACT; site = the 11-nt target
In short: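 IS621 bridge RNA target-binding loops were paired with targets in a pooled library tested in E. coli. After co-electroporation with a donor plasmid, cells were plated in two replicates on chloramphenicol/ampicillin LB agar (control) and on chloramphenicol/ampicillin/kanamycin carrying 0.1 mM IPTG. Barcodes at recombinant junctions were counted as counts per million, averaged and control-corrected to give recombination efficiency. Values are log10(CPM+1).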

Sequence | recombinant barcode read abundance (log10)
GCGGGACGATGGGTTCTAACCTGTTGCCTTC [GCGGGACCTAG_LTGcore_GA_RTGcore_GA] (site GCGGGACCTAG) (LTG core: GA, RTG core: GA) | 0.2
GCGGGACGGTGGGTTCTAACCTGTTGCCTAG [GCGGGACCTAG_LTGcore_GG_RTGcore_CT] (site GCGGGACCTAG) (LTG core: GG, RTG core: CT) | 0.14
GCGGGACGTTGGGTTCTAACCTGTTGCCTAG [GCGGGACCTAG_LTGcore_GT_RTGcore_CT] (site GCGGGACCTAG) (LTG core: GT, RTG core: CT) | 0.0984
GGACACCACTGGGTTCTAACCTGTTGCCTAG [GGACACCCTAG_LTGcore_AC_RTGcore_CT] (site GGACACCCTAG) (LTG core: AC, RTG core: CT) | 0.0688
GGACACCCCTGGGTTCTAACCTGTTGCCTGG [GGACACCCTAG_LTGcore_CC_RTGcore_CC] (site GGACACCCTAG) (LTG core: CC, RTG core: CC) | 0.128
GGACACCCTTGGGTTCTAACCTGTTGCCTCA [GGACACCCTAG_LTGcore_CT_RTGcore_TG] (site GGACACCCTAG) (LTG core: CT, RTG core: TG) | 0.858
GGACACCGATGGGTTCTAACCTGTTGCCTTC [GGACACCCTAG_LTGcore_GA_RTGcore_GA] (site GGACACCCTAG) (LTG core: GA, RTG core: GA) | 0.0178
GGACACCGTTGGGTTCTAACCTGTTGCCTAG [GGACACCCTAG_LTGcore_GT_RTGcore_CT] (site GGACACCCTAG) (LTG core: GT, RTG core: CT) | 0.32
GGCTCCCAGTGGGTTCTAACCTGTTGCGGCT [GGCTCCCCTCC_LTGcore_AG_RTGcore_AG] (site GGCTCCCCTCC) (LTG core: AG, RTG core: AG) | 0.206
GGCTCCCCATGGGTTCTAACCTGTTGCGGTG [GGCTCCCCTCC_LTGcore_CA_RTGcore_CA] (site GGCTCCCCTCC) (LTG core: CA, RTG core: CA) | 0.1
GGCTCCCCCTGGGTTCTAACCTGTTGCGGAG [GGCTCCCCTCC_LTGcore_CC_RTGcore_CT] (site GGCTCCCCTCC) (LTG core: CC, RTG core: CT) | 0
GGCTCCCCTTGGGTTCTAACCTGTTGCGGCA [GGCTCCCCTCC_LTGcore_CT_RTGcore_TG] (site GGCTCCCCTCC) (LTG core: CT, RTG core: TG) | 0.426
GGCTCCCCTTGGGTTCTAACCTGTTGCGGGT [GGCTCCCCTCC_LTGcore_CT_RTGcore_AC] (site GGCTCCCCTCC) (LTG core: CT, RTG core: AC) | 0.0344
GGCTCCCTCTGGGTTCTAACCTGTTGCGGGA [GGCTCCCCTCC_LTGcore_TC_RTGcore_TC] (site GGCTCCCCTCC) (LTG core: TC, RTG core: TC) | 0.238
GGCTCCCTGTGGGTTCTAACCTGTTGCGGAG [GGCTCCCCTCC_LTGcore_TG_RTGcore_CT] (site GGCTCCCCTCC) (LTG core: TG, RTG core: CT) | 0.046
GGGAGCCACTGGGTTCTAACCTGTTGCTGAG [GGGAGCCCTCA_LTGcore_AC_RTGcore_CT] (site GGGAGCCCTCA) (LTG core: AC, RTG core: CT) | 0
GGGAGCCAGTGGGTTCTAACCTGTTGCTGAG [GGGAGCCCTCA_LTGcore_AG_RTGcore_CT] (site GGGAGCCCTCA) (LTG core: AG, RTG core: CT) | 0.493
GGGAGCCAGTGGGTTCTAACCTGTTGCTGCT [GGGAGCCCTCA_LTGcore_AG_RTGcore_AG] (site GGGAGCCCTCA) (LTG core: AG, RTG core: AG) | 0.523
GGGAGCCCATGGGTTCTAACCTGTTGCTGTG [GGGAGCCCTCA_LTGcore_CA_RTGcore_CA] (site GGGAGCCCTCA) (LTG core: CA, RTG core: CA) | 0.536
GGGAGCCCCTGGGTTCTAACCTGTTGCTGAG [GGGAGCCCTCA_LTGcore_CC_RTGcore_CT] (site GGGAGCCCTCA) (LTG core: CC, RTG core: CT) | 1.11
GGGAGCCCGTGGGTTCTAACCTGTTGCTGCG [GGGAGCCCTCA_LTGcore_CG_RTGcore_CG] (site GGGAGCCCTCA) (LTG core: CG, RTG core: CG) | 0.113
GGGAGCCCTTGGGTTCTAACCTGTTGCTGTC [GGGAGCCCTCA_LTGcore_CT_RTGcore_GA] (site GGGAGCCCTCA) (LTG core: CT, RTG core: GA) | 0.0409
GGGAGCCGATGGGTTCTAACCTGTTGCTGAG [GGGAGCCCTCA_LTGcore_GA_RTGcore_CT] (site GGGAGCCCTCA) (LTG core: GA, RTG core: CT) | 0.0418

Sequence | recombinant barcode read abundance (log10)
GGGAGCCGCTGGGTTCTAACCTGTTGCTGGC [GGGAGCCCTCA_LTGcore_GC_RTGcore_GC] (site GGGAGCCCTCA) (LTG core: GC, RTG core: GC) | 0.0416
GGGAGCCTATGGGTTCTAACCTGTTGCTGAG [GGGAGCCCTCA_LTGcore_TA_RTGcore_CT] (site GGGAGCCCTCA) (LTG core: TA, RTG core: CT) | 0.0839
GGGAGCCTATGGGTTCTAACCTGTTGCTGTA [GGGAGCCCTCA_LTGcore_TA_RTGcore_TA] (site GGGAGCCCTCA) (LTG core: TA, RTG core: TA) | 0.157
GGGCGGAACTGGGTTCTAACCTGTTGCGGAG [GGGCGGACTCC_LTGcore_AC_RTGcore_CT] (site GGGCGGACTCC) (LTG core: AC, RTG core: CT) | 0.449
GGGCGGAAGTGGGTTCTAACCTGTTGCGGAG [GGGCGGACTCC_LTGcore_AG_RTGcore_CT] (site GGGCGGACTCC) (LTG core: AG, RTG core: CT) | 0.0524
GGGCGGAAGTGGGTTCTAACCTGTTGCGGCT [GGGCGGACTCC_LTGcore_AG_RTGcore_AG] (site GGGCGGACTCC) (LTG core: AG, RTG core: AG) | 0.193
GGGCGGACCTGGGTTCTAACCTGTTGCGGGG [GGGCGGACTCC_LTGcore_CC_RTGcore_CC] (site GGGCGGACTCC) (LTG core: CC, RTG core: CC) | 0.132
GGGCGGACTTGGGTTCTAACCTGTTGCGGAA [GGGCGGACTCC_LTGcore_CT_RTGcore_TT] (site GGGCGGACTCC) (LTG core: CT, RTG core: TT) | 1.23
GGGCGGACTTGGGTTCTAACCTGTTGCGGAT [GGGCGGACTCC_LTGcore_CT_RTGcore_AT] (site GGGCGGACTCC) (LTG core: CT, RTG core: AT) | 0.0401
GGGCGGACTTGGGTTCTAACCTGTTGCGGCA [GGGCGGACTCC_LTGcore_CT_RTGcore_TG] (site GGGCGGACTCC) (LTG core: CT, RTG core: TG) | 0.146
GGGCGGAGATGGGTTCTAACCTGTTGCGGAG [GGGCGGACTCC_LTGcore_GA_RTGcore_CT] (site GGGCGGACTCC) (LTG core: GA, RTG core: CT) | 0.539
GGGCGGAGCTGGGTTCTAACCTGTTGCGGAG [GGGCGGACTCC_LTGcore_GC_RTGcore_CT] (site GGGCGGACTCC) (LTG core: GC, RTG core: CT) | 0.0821
GGGCGGAGGTGGGTTCTAACCTGTTGCGGAG [GGGCGGACTCC_LTGcore_GG_RTGcore_CT] (site GGGCGGACTCC) (LTG core: GG, RTG core: CT) | 0.0907
GGGCGGAGGTGGGTTCTAACCTGTTGCGGCC [GGGCGGACTCC_LTGcore_GG_RTGcore_GG] (site GGGCGGACTCC) (LTG core: GG, RTG core: GG) | 0.502
GGGCGGATATGGGTTCTAACCTGTTGCGGAG [GGGCGGACTCC_LTGcore_TA_RTGcore_CT] (site GGGCGGACTCC) (LTG core: TA, RTG core: CT) | 0.0954
GGGCGGATATGGGTTCTAACCTGTTGCGGTA [GGGCGGACTCC_LTGcore_TA_RTGcore_TA] (site GGGCGGACTCC) (LTG core: TA, RTG core: TA) | 0.0888
GGGCGGATGTGGGTTCTAACCTGTTGCGGCA [GGGCGGACTCC_LTGcore_TG_RTGcore_TG] (site GGGCGGACTCC) (LTG core: TG, RTG core: TG) | 0.182
GGGCGTGACTGGGTTCTAACCTGTTGCCTAG [GGGCGTGCTAG_LTGcore_AC_RTGcore_CT] (site GGGCGTGCTAG) (LTG core: AC, RTG core: CT) | 0.437
GGGCGTGACTGGGTTCTAACCTGTTGCCTGT [GGGCGTGCTAG_LTGcore_AC_RTGcore_AC] (site GGGCGTGCTAG) (LTG core: AC, RTG core: AC) | 0.0793
GGGCGTGAGTGGGTTCTAACCTGTTGCCTCT [GGGCGTGCTAG_LTGcore_AG_RTGcore_AG] (site GGGCGTGCTAG) (LTG core: AG, RTG core: AG) | 0.523
GGGCGTGATTGGGTTCTAACCTGTTGCCTAG [GGGCGTGCTAG_LTGcore_AT_RTGcore_CT] (site GGGCGTGCTAG) (LTG core: AT, RTG core: CT) | 0.308
GGGCGTGCGTGGGTTCTAACCTGTTGCCTCG [GGGCGTGCTAG_LTGcore_CG_RTGcore_CG] (site GGGCGTGCTAG) (LTG core: CG, RTG core: CG) | 0.0415
